Laboratory results as given in patent US11124554B2, “Modified ligand-gated ion channels and methods of use” (Howard Hughes Medical Institute, priority 2016, dated 2021).
Like-named read-outs stand apart in the source and are kept apart here.

Key:
α7^Q79G-5HT3 = molecular target: T1, α7^Q79G-5HT3 (Homo sapiens, UniProt P36544, M226I/Q79G/T225I); assay: Agonist potency (EC50), HEK cells expressing chimeric channel; assay type: cell-based, human α7 nAChR LBD, murine 5HT3 IPD; settings: read-out: Mean EC50, α7^Q79G-5HT3
T1 construct: expressed in transfected cells; host or cells: HEK cells
T1 sequence (P36544 with tags, fused parts or gaps Q79G/T225I/M226I): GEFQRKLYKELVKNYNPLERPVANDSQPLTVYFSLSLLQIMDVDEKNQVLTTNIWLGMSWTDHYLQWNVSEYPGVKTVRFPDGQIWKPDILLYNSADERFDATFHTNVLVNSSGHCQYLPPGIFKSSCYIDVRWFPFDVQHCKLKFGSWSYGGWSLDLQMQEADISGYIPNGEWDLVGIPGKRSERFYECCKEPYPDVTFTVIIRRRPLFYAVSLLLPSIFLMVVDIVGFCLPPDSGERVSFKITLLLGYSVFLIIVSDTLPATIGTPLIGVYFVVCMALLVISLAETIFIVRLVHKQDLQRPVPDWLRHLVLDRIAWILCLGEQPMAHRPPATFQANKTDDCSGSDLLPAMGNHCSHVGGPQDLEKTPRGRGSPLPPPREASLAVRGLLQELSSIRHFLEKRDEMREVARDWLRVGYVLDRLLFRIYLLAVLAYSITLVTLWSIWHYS

α7-GlyR = molecular target: T2, α7-GlyR (Homo sapiens, UniProt P36544); assay: as above; assay type: cell-based
T2 construct: expressed in transfected cells; host or cells: HEK cells
T2 sequence (P36544 with tags, fused parts or gaps): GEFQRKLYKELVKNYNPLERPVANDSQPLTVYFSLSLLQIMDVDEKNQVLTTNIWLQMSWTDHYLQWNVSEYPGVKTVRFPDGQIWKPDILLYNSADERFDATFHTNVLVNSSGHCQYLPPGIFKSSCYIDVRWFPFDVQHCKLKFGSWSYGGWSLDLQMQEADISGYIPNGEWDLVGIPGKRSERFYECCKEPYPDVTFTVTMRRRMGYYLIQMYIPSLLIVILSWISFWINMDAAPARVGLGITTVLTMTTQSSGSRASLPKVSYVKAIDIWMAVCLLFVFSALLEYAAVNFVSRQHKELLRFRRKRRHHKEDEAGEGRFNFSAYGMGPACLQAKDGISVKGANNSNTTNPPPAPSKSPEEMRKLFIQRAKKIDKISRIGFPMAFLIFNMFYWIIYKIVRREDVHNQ

α7-GlyR^A298G = molecular target: T3, α7-GlyR^A298G (Homo sapiens, UniProt P36544, A298G); assay: as above; assay type: cell-based
T3 construct: expressed in transfected cells; host or cells: HEK cells
T3 sequence (P36544 with tags, fused parts or gaps, stated change not applied): as the sequence (P36544 with tags, fused parts or gaps) above, with A276G counted along it

α7^W77F,G175K-GlyR = molecular target: T4, α7^W77F,G175K-GlyR (Homo sapiens, UniProt P36544, G175K/W77F); assay: Agonist potency at chimeric channel; assay type: cell-based
T4 construct: expressed in transfected cells
T4 sequence (P36544 with tags, fused parts or gaps W77F/G175K): as the sequence (P36544 with tags, fused parts or gaps) above, with W55F, G153K counted along it

[1] = molecular target: T5, α7GlyR W77F Q79G Y115F G175K (Homo sapiens, UniProt P36544, G175K/Q79G/W77F/Y115F); assay: Agonist potency at chimeric channel; assay type: cell-based
T5 construct: expressed in transfected cells
T5 sequence (P36544 with tags, fused parts or gaps W77F/Q79G/Y115F/G175K): as the sequence (P36544 with tags, fused parts or gaps) above, with W55F, Q57G, Y93F, G153K counted along it

[2] = molecular target: T6, α7GlyR Q79G Y115F G175K K322L (Homo sapiens, UniProt P36544, G175K/Q79G/Y115F); assay: Agonist potency at chimeric channel; assay type: cell-based
T6 construct: expressed in transfected cells
T6 sequence (P36544 with tags, fused parts or gaps Q79G/Y115F/G175K): as the sequence (P36544 with tags, fused parts or gaps) above, with Q57G, Y93F, G153K, K300L counted along it

α7^Q79S,L131G,Q139L-GlyR = molecular target: T7, α7^Q79S,L131G,Q139L-GlyR (Homo sapiens, UniProt P36544, L131G/Q139L/Q79S); assay: cell-based; assay type: cell-based
T7 construct: expressed in transfected cells
T7 sequence (P36544 with tags, fused parts or gaps Q79S/L131G/Q139L): as the sequence (P36544 with tags, fused parts or gaps) above, with Q57S, L109G, Q117L counted along it

α7^L131F-GlyR = molecular target: T8, α7^L131F-GlyR (Homo sapiens, UniProt P36544, L131F); assay: Agonist potency at chimeric channel (Table 9); assay type: cell-based
T8 construct: expressed in transfected cells
T8 sequence (P36544 with tags, fused parts or gaps L131F): as the sequence (P36544 with tags, fused parts or gaps) above, with L109F counted along it

α7^L131G-GABAc = molecular target: T9, α7^L131G-GABAc (Homo sapiens, UniProt P36544, L131G); assay: Agonist potency at chimeric channel (Table 9); assay type: cell-based
T9 construct: expressed in transfected cells
T9 sequence (P36544 with tags, fused parts or gaps L131G): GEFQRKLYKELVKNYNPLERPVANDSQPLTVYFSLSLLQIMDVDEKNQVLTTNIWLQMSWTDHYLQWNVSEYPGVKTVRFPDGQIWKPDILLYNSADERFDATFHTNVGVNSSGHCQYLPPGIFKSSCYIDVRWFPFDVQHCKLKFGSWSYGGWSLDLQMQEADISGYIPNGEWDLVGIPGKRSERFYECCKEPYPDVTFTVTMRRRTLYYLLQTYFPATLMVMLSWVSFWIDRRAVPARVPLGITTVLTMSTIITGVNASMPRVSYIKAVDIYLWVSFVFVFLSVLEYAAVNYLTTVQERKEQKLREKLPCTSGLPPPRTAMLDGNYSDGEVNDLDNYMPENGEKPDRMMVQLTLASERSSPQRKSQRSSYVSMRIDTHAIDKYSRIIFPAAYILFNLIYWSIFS

α7GABAc (GABAA-ρ) W298A = molecular target: T10, α7GABAc (GABAA-ρ) W298A (Homo sapiens, UniProt P36544, L141F/Q79G); assay: Agonist potency at chimeric channel (Table 7); assay type: cell-based
T10 construct: expressed in transfected cells
T10 sequence (P36544 with tags, fused parts or gaps Q79G/L141F): as the sequence (P36544 with tags, fused parts or gaps L131G) above, with Q57G, G109L, L119F, W276A counted along it

α7GlyR Q79G L131G = molecular target: T11, α7GlyR Q79G L131G (Homo sapiens, UniProt P36544, L131G/Q79G); assay: Agonist potency at chimeric channel (Table 9); assay type: cell-based
T11 construct: expressed in transfected cells
T11 sequence (P36544 with tags, fused parts or gaps Q79G/L131G): as the sequence (P36544 with tags, fused parts or gaps) above, with Q57G, L109G counted along it

α7^Q79A-GlyR = molecular target: T12, α7^Q79A-GlyR (Homo sapiens, UniProt P36544, Q79A); assay: Agonist potency (EC50), HEK cells expressing chimeric channel; assay type: cell-based
T12 construct: expressed in transfected cells; host or cells: HEK cells
T12 sequence (P36544 with tags, fused parts or gaps Q79A): as the sequence (P36544 with tags, fused parts or gaps) above, with Q57A counted along it

α7^Q79G-GlyR^A298G = molecular target: T13, α7^Q79G-GlyR^A298G (Homo sapiens, UniProt P36544, A298G/Q79G); assay: as above; assay type: cell-based
T13 construct: expressed in transfected cells; host or cells: HEK cells
T13 sequence (P36544 with tags, fused parts or gaps Q79G): as the sequence (P36544 with tags, fused parts or gaps) above, with Q57G, A276G counted along it

α7^P216I-GlyR = molecular target: T14, α7^P216I-GlyR (Homo sapiens, UniProt P36544, P216I); assay: Agonist potency at chimeric channel; assay type: cell-based
T14 construct: expressed in transfected cells
T14 sequence (P36544 with tags, fused parts or gaps P216I): as the sequence (P36544 with tags, fused parts or gaps) above, with P194I counted along it

[3] = molecular target: T15, α7GlyR Q79G G175K Y115F R27D E41R (Homo sapiens, UniProt P36544, E41R/G175K/Q79G/R27D/Y115F); assay: Agonist potency at chimeric channel; assay type: cell-based
T15 construct: expressed in transfected cells
T15 sequence (P36544 with tags, fused parts or gaps R27D/E41R/Q79G/Y115F/G175K): as the sequence (P36544 with tags, fused parts or gaps) above, with R5D, E19R, Q57G, Y93F, G153K counted along it

[4] = molecular target: T16, α7^L131G,Q139L,Y217F-GlyR (Homo sapiens, UniProt P36544, L131G/Q139L/Y217F); assay: cell-based; assay type: cell-based
T16 construct: expressed in transfected cells
T16 sequence (P36544 with tags, fused parts or gaps L131G/Q139L/Y217F): as the sequence (P36544 with tags, fused parts or gaps) above, with L109G, Q117L, Y195F counted along it

α7^Q79G,Y115F-5HT3 = molecular target: T17, α7^Q79G,Y115F-5HT3 (Homo sapiens, UniProt P36544, M226I/Q79G/T225I/Y115F); assay: Agonist potency (EC50), HEK cells expressing chimeric channel; assay type: cell-based, human α7 nAChR LBD, murine 5HT3 IPD; settings: Table 4
T17 construct: expressed in transfected cells; host or cells: HEK cells
T17 sequence (P36544 with tags, fused parts or gaps Q79G/Y115F/T225I/M226I): as the sequence (P36544 with tags, fused parts or gaps Q79G/T225I/M226I) above, with Y93F counted along it

α7^Q79G,Q139G-5HT3 = molecular target: T18, α7^Q79G,Q139G-5HT3 (Homo sapiens, UniProt P36544, M226I/Q139G/Q79G/T225I); assay: as above; assay type: cell-based, human α7 nAChR LBD, murine 5HT3 IPD; settings: Table 4
T18 construct: expressed in transfected cells; host or cells: HEK cells
T18 sequence (P36544 with tags, fused parts or gaps Q79G/Q139G/T225I/M226I): as the sequence (P36544 with tags, fused parts or gaps Q79G/T225I/M226I) above, with Q117G counted along it

α7^Q79G,Y115F-GlyR^A298G = molecular target: T19, α7^Q79G,Y115F-GlyR^A298G (Homo sapiens, UniProt P36544, A298G/Q79G/Y115F); assay: as above; assay type: cell-based; settings: Table 4
T19 construct: expressed in transfected cells; host or cells: HEK cells
T19 sequence (P36544 with tags, fused parts or gaps Q79G/Y115F): as the sequence (P36544 with tags, fused parts or gaps) above, with Q57G, Y93F, A276G counted along it

[5] = molecular target: T20, α7^R27D,E41R,Q79G,Y115F-GlyR^A298G (Homo sapiens, UniProt P36544, A298G/E41R/Q79G/R27D/Y115F); assay: as above; assay type: cell-based; settings: Table 4, read-out: Mean EC50, α7^R27D,E41R,Q79G,115F-GlyR^A298G
T20 construct: expressed in transfected cells; host or cells: HEK cells
T20 sequence (P36544 with tags, fused parts or gaps R27D/E41R/Q79G/Y115F): as the sequence (P36544 with tags, fused parts or gaps) above, with R5D, E19R, Q57G, Y93F, A276G counted along it

[6] = molecular target: T21, α7^L131G,Q139L,Y217F-5HT3 HC (Homo sapiens, UniProt P36544, L131G/M226I/Q139L/T225I/Y217F); assay: Agonist potency at chimeric channel (Table 9); assay type: cell-based; settings: α75HT3 L131G Q139L Y217F HC
T21 construct: expressed in transfected cells
T21 sequence (P36544 with tags, fused parts or gaps L131G/Q139L/Y217F/T225I/M226I limits assumed): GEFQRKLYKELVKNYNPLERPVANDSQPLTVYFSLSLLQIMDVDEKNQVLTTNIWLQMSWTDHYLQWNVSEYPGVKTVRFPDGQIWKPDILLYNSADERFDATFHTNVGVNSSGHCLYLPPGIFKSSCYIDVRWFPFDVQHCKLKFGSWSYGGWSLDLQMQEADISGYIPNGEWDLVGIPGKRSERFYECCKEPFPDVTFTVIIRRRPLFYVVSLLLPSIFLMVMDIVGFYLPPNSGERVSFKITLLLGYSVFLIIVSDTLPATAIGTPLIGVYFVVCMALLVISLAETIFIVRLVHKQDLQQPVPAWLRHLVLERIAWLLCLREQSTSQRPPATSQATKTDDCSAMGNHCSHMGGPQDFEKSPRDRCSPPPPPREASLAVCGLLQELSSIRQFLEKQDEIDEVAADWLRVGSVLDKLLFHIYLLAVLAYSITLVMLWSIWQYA

α7^R27D,E41R-5HT3 = molecular target: T22, α7^R27D,E41R-5HT3 (Homo sapiens, UniProt P36544, E41R/M226I/R27D/T225I); assay: Whole cell recordings in HEK cells; assay type: cell-based, human α7 nAChR LBD, murine 5HT3 IPD; settings: V5 epitope tag
T22 construct: expressed in transfected cells; host or cells: HEK cells
T22 sequence (P36544 with tags, fused parts or gaps R27D/E41R/T225I/M226I limits assumed): as the sequence (P36544 with tags, fused parts or gaps Q79G/T225I/M226I) above, with R5D, E19R, G57Q counted along it

[7] = read-out: Agonist potency, a7GlyR

SMILES: O=c1cccc2n1C[C@@H]1CNC[C@H]2C1 [Cytisine]
- EC50 (α7^Q79G-5HT3): 1700 nM
- EC50 (α7-GlyR): 6400 nM
- EC50 (α7-GlyR; read-out: Agonist potency): 6400 nM
- EC50 (α7-GlyR; [7]): 6400 nM
- EC50 (α7-GlyR^A298G): 2100 nM
- EC50 (α7^W77F,G175K-GlyR): 1500 nM
- EC50 [1]: 4.02 µM
- EC50 [2]: > 30000 nM
- EC50 (α7^Q79S,L131G,Q139L-GlyR): 10 µM
- EC50 (α7^L131F-GlyR): 10.5 µM
- EC50 (α7^L131G-GABAc): > 500 µM
- EC50 (α7GABAc (GABAA-ρ) W298A): 13.3 µM
- EC50 (α7GlyR Q79G L131G): > 30000 nM

SMILES: Clc1ccc(C2CC3CCC2N3)cn1 (stereo not shown) [Epibatidine]
- EC50 (α7^Q79G-5HT3; HEK cells, Table 1): 50 nM
- EC50 (α7^Q79A-GlyR): 38 nM
- EC50 (α7^Q79G-GlyR^A298G): 32 nM
- EC50 (α7^P216I-GlyR): 30 nM
- EC50 (α7^W77F,G175K-GlyR): 40 nM
- EC50 [2]: 270 nM
- EC50 [3]: 59 nM
- EC50 [4]: 21 nM
- EC50 (α7^Q79S,L131G,Q139L-GlyR): 0.012 µM
- EC50 (α7GABAc (GABAA-ρ) W298A): 0.42 µM

SMILES: O=C(NC1CN2CCC1CC2)c1ccc(Cl)cc1 (stereo not shown) [PNU-282987]
- EC50 (α7-GlyR): 130 nM
- EC50 (α7-GlyR; read-out: Agonist potency): 130 nM
- EC50 (α7-GlyR; [7]): 130 nM
- EC50 (α7-GlyR; read-out: α7-GlyR EC50): 130 nM
- EC50 (α7^Q79A-GlyR): 22 nM
- EC50 (α7-GlyR^A298G): 35 nM
- EC50 (α7^Q79G-GlyR^A298G): 7 nM
- EC50 (α7^Q79G-GlyR^A298G; read-out: α7^Q79G-GlyR^A298G EC50): 7 nM
- EC50 (α7^Q79G,Y115F-5HT3): 350 nM
- EC50 (α7^Q79G,Q139G-5HT3): 160 nM
- EC50 (α7^Q79G,Y115F-GlyR^A298G): 220 nM
- EC50 [5]: 66 nM
- EC50 (α7^P216I-GlyR): 40 nM
- EC50 [1]: > 1 µM
- EC50 [3]: 50 nM
- EC50 [4]: 160 nM
- EC50 (α7^L131F-GlyR): 0.2 µM
- EC50 [6]: 15 nM
- whole cell response (α7^R27D,E41R-5HT3): potent responses
- EC50 (α7GlyR Q79G L131G): 96 nM
